From patent US11446287B2, “Compounds and methods for EP300 or CBP modulation and indications therefor” (Opna Immuno-Oncology SA, priority 2019, dated 2022)

These compounds were tested against T1, Recombinant human BRD4 containing dual bromodomains (BRD4-BD12 (1-477)) (Homo sapiens, UniProt O60885) (assay: BRD4 Alphascreen binding assay).
T1 construct: Recombinant human BRD4 containing dual bromodomains (BRD4-BD12 (1-477)); made in house; host or cells: E. coli BL21-CodonPlus (DE3), modified pET vector
In short: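 His-tagged human BRD4 tandem bromodomains (1-477, E. coli) incubated 1 h at room temperature with biotinylated tetra-acetylated H4 (1-21) peptide and compound in HEPES pH 7.5 buffer with 2 mM DTT. AlphaScreen signal read 30 min after adding beads (7.5 μg/ml); IC50 from four-parameter fit after normalization to controls.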
`Cc1noc(C)c1-c1cnc2c(c1)c(-c1ccc(C(=O)O)cc1OC(C)C)cn2[C@H]1CCOC1` [P-0301, (S)-4-(5-(3,5-dimethylisoxazol-4-yl)-1-(tetrahydrofuran-3-yl)-1H-pyrrolo[2,3-b]pyridin-3-yl)-3-isopropoxybenzoic acid] was tested, and the IC50 was 8 to 1000 µM. Work on `Cc1noc(C)c1-c1cnc2c(-c3cccc(C(=O)O)c3C)c(C(F)(F)F)n([C@@H](C)c3ccccn3)c2c1` [P-0246, (S)-3-(6-(3,5-dimethylisoxazol-4-yl)-1-(1-(pyridin-2-yl)ethyl)-2-(trifluoromethyl)-1H-pyrrolo[3,2-b]pyridin-3-yl)-2-methylbenzoic acid] yielded an IC50 of 8 to 1000 µM. Work on `Cc1noc(C)c1-c1cnc2c(c1)c(-c1ccc(S(C)(=O)=O)cc1OC(C)C)cn2-c1ccccc1` [P-0302, 4-(3-(2-isopropoxy-4-(methylsulfonyl)phenyl)-1-phenyl-1H-pyrrolo[2,3-b]pyridin-5-yl)-3,5-dimethylisoxazole] yielded an IC50 of 8 to 1000 µM. `CCOc1cc(C(=O)O)cc(OCC)c1-n1cc(-c2cnn(CC3CC3)c2)c2ncc(-c3c(C)noc3C)cc21` [P-0264, 4-(3-(1-(cyclopropylmethyl)-1H-pyrazol-4-yl)-6-(3,5-dimethylisoxazol-4-yl)-1H-pyrrolo[3,2-b]pyridin-1-yl)-3,5-diethoxybenzoic acid] gave an IC50 of 1 to 8 µM. `Cc1noc(C)c1-c1cnc2c(-c3cc(C(=O)O)ccc3Cl)c(C(F)(F)F)n([C@@H](C)c3ccccn3)c2c1` [P-0257, (S)-4-chloro-3-(6-(3,5-dimethylisoxazol-4-yl)-1-(1-(pyridin-2-yl)ethyl)-2-(trifluoromethyl)-1H-pyrrolo[3,2-b]pyridin-3-yl)benzoic acid] gave an IC50 of 8 to 1000 µM. `Cc1cc(C#N)ccc1-n1cc(-c2ccc(C(=O)O)cc2OC(F)(F)F)c2cc(-c3c(C)noc3C)cnc21` [P-0310, 4-(1-(4-cyano-2-methylphenyl)-5-(3,5-dimethylisoxazol-4-yl)-1H-pyrrolo[2,3-b]pyridin-3-yl)-3-(trifluoromethoxy)benzoic acid] was tested, and the IC50 was 1 to 8 µM. `Cc1noc(C)c1-c1cnc2c(c1)c(-c1ccc(C(=O)O)cc1OC(F)(F)F)cn2C1CCNCC1` [P-0290, 4-(5-(3,5-dimethylisoxazol-4-yl)-1-(piperidin-4-yl)-1H-pyrrolo[2,3-b]pyridin-3-yl)-3-(trifluoromethoxy)benzoic acid] was tested, and the IC50 was 8 to 1000 µM. With `Cc1noc(C)c1-c1cnc2c(c1)c(-c1ccc(C(=O)O)cc1OC(F)(F)F)cn2-c1ccc(S(C)(=O)=O)cc1` [P-0282, 4-(5-(3,5-dimethylisoxazol-4-yl)-1-(4-(methylsulfonyl)phenyl)-1H-pyrrolo[2,3-b]pyridin-3-yl)-3-(trifluoromethoxy)benzoic acid] the IC50 was 0.0001 to 1 µM. `Cc1noc(C)c1-c1cnc2c(c1)c(-c1ccc(C(=O)O)cc1OC(F)(F)F)cn2[C@@H]1CCOC1` [P-0286, (R)-4-(5-(3,5-dimethylisoxazol-4-yl)-1-(tetrahydrofuran-3-yl)-1H-pyrrolo[2,3-b]pyridin-3-yl)-3-(trifluoromethoxy)benzoic acid] gave an IC50 of 8 to 1000 µM. In the case of `Cc1noc(C)c1-c1cnc2c(c1)c(-c1ccc(C(=O)O)cc1OC(F)(F)F)cn2-c1cnn(CC(C)(C)O)c1` [P-0294, 4-(5-(3,5-dimethylisoxazol-4-yl)-1-(1-(2-hydroxy-2-methylpropyl)-1H-pyrazol-4-yl)-1H-pyrrolo[2,3-b]pyridin-3-yl)-3-(trifluoromethoxy)benzoic acid], the IC50 is reported as 0.0001 to 1 µM. `Cc1noc(C)c1-c1cnc2c(c1)c(-c1cc(C(=O)O)ccc1OC(F)(F)F)cn2C(C1CC1)C1CC1` [P-0284, 3-(1-(dicyclopropylmethyl)-5-(3,5-dimethylisoxazol-4-yl)-1H-pyrrolo[2,3-b]pyridin-3-yl)-4-(trifluoromethoxy)benzoic acid] showed an IC50 of 8 to 1000 µM. With `Cc1noc(C)c1-c1cnc2c(c1)c(-c1ccc(C(=O)O)cc1OC(F)(F)F)cn2-c1ccc(C#N)cc1` [P-0313, 4-(1-(4-cyanophenyl)-5-(3,5-dimethylisoxazol-4-yl)-1H-pyrrolo[2,3-b]pyridin-3-yl)-3-(trifluoromethoxy)benzoic acid] the IC50 was 1 to 8 µM. `Cc1noc(C)c1-c1cnc2c(c1)c(-c1ccc(C(=O)O)nc1)cn2C(c1ccccn1)C1CCCC1` (stereo not drawn) [P-0026, 5-(1-(cyclopentyl(pyridin-2-yl)methyl)-5-(3,5-dimethylisoxazol-4-yl)-1H-pyrrolo[2,3-b]pyridin-3-yl)picolinic acid] showed an IC50 of 1 to 8 µM. With `Cc1noc(C)c1-c1cnc2c(c1)c(-c1ccc(C(=O)O)cc1OC(C)C)cn2-c1cnc(N2CCC2)nc1` [P-0300, 4-(1-(2-(azetidin-1-yl)pyrimidin-5-yl)-5-(3,5-dimethylisoxazol-4-yl)-1H-pyrrolo[2,3-b]pyridin-3-yl)-3-isopropoxybenzoic acid] the IC50 was 8 to 1000 µM. `CCOc1c(F)c(C(=O)O)c(F)c(OCC)c1-c1cn(-c2ccc(F)cc2F)c2ncc(-c3c(C)noc3C)cc12` [P-0296, 4-(1-(2,4-difluorophenyl)-5-(3,5-dimethylisoxazol-4-yl)-1H-pyrrolo[2,3-b]pyridin-3-yl)-3,5-diethoxy-2,6-difluorobenzoic acid] showed an IC50 of 8 to 1000 µM. `Cc1noc(C)c1-c1cnc2c(-c3ccc(C(=O)O)cc3C#N)c(C(F)(F)F)n([C@@H](C)c3ccccn3)c2c1` [P-0256, (S)-3-cyano-4-(6-(3,5-dimethylisoxazol-4-yl)-1-(1-(pyridin-2-yl)ethyl)-2-(trifluoromethyl)-1H-pyrrolo[3,2-b]pyridin-3-yl)benzoic acid] showed an IC50 of 8 to 1000 µM. For `CCOc1cc(C(=O)O)cc(OCC)c1-n1cc(-c2cnn(CC(=O)N(C)C)c2)c2ncc(-c3c(C)noc3C)cc21` [P-0267, 4-(3-(1-(2-(dimethylamino)-2-oxoethyl)-1H-pyrazol-4-yl)-6-(3,5-dimethylisoxazol-4-yl)-1H-pyrrolo[3,2-b]pyridin-1-yl)-3,5-diethoxybenzoic acid], the IC50 was 1 to 8 µM. Compound `CCOC(=O)c1cc(-c2cn(-c3ccc(F)cc3F)c3ncc(-c4c(C)noc4C)cc23)c(OCC)cc1O` [P-0248, ethyl 5-(1-(2,4-difluorophenyl)-5-(3,5-dimethylisoxazol-4-yl)-1H-pyrrolo[2,3-b]pyridin-3-yl)-4-ethoxy-2-hydroxybenzoate] has an IC50 of 8 to 1000 µM. `Cc1noc(C)c1-c1cnc2c(c1)c(-c1ccc(C(=O)O)cc1OC(C)C)cn2-c1ccccc1` [P-0275, 4-(5-(3,5-dimethylisoxazol-4-yl)-1-phenyl-1H-pyrrolo[2,3-b]pyridin-3-yl)-3-isopropoxybenzoic acid] gave an IC50 of 1 to 8 µM. With `Cc1noc(C)c1-c1cnc2c(c1)c(-c1ccc(C(=O)O)cc1OC(F)(F)F)cn2-c1cnccc1F` [P-0251, 4-(5-(3,5-dimethylisoxazol-4-yl)-1-(4-fluoropyridin-3-yl)-1H-pyrrolo[2,3-b]pyridin-3-yl)-3-(trifluoromethoxy)benzoic acid] the IC50 was 8 to 1000 µM. In the case of `CCn1cc(-n2cc(-c3ccc(C(=O)O)cc3OC(F)(F)F)c3cc(-c4c(C)noc4C)cnc32)c(C)n1` [P-0287, 4-(5-(3,5-dimethylisoxazol-4-yl)-1-(1-ethyl-3-methyl-1H-pyrazol-4-yl)-1H-pyrrolo[2,3-b]pyridin-3-yl)-3-(trifluoromethoxy)benzoic acid], the IC50 is reported as 1 to 8 µM. Work on `CCOc1cc(C(=O)O)cc(OCC)c1-n1cc(-c2cnn(CCC#N)c2)c2ncc(-c3c(C)noc3C)cc21` [P-0266, 4-(3-(1-(2-cyanoethyl)-1H-pyrazol-4-yl)-6-(3,5-dimethylisoxazol-4-yl)-1H-pyrrolo[3,2-b]pyridin-1-yl)-3,5-diethoxybenzoic acid] yielded an IC50 of 1 to 8 µM. Compound `Cc1noc(C)c1-c1cnc2c(c1)c(-c1ccc(C(=O)O)cc1OC(C)C)cn2-c1cnn(CC(C)(C)O)c1` [P-0299, 4-(5-(3,5-dimethylisoxazol-4-yl)-1-(1-(2-hydroxy-2-methylpropyl)-1H-pyrazol-4-yl)-1H-pyrrolo[2,3-b]pyridin-3-yl)-3-isopropoxybenzoic acid] has an IC50 of 1 to 8 µM. Compound `Cc1noc(C)c1-c1cnc2c(c1)c(-c1ccc(C(=O)O)cc1OCC(F)F)cn2-c1ccncc1Cl` [P-0306, 4-(1-(3-chloropyridin-4-yl)-5-(3,5-dimethylisoxazol-4-yl)-1H-pyrrolo[2,3-b]pyridin-3-yl)-3-(2,2-difluoroethoxy)benzoic acid] has an IC50 of 8 to 1000 µM. Compound `Cc1noc(C)c1-c1cnc2c(c1)c(-c1ccc(C(=O)O)c(F)c1)cn2C(c1ccccn1)C1CCCC1` (stereo not drawn) [P-0025, 4-(1-(cyclopentyl(pyridin-2-yl)methyl)-5-(3,5-dimethylisoxazol-4-yl)-1H-pyrrolo[2,3-b]pyridin-3-yl)-2-fluorobenzoic acid] has an IC50 of 1 to 8 µM. Work on `Cc1noc(C)c1-c1cnc2c(c1)c(-c1ccc(C(=O)O)cc1OC(F)(F)F)cn2-c1ccncc1Cl` [P-0253, 4-(1-(3-chloropyridin-4-yl)-5-(3,5-dimethylisoxazol-4-yl)-1H-pyrrolo[2,3-b]pyridin-3-yl)-3-(trifluoromethoxy)benzoic acid] yielded an IC50 of 8 to 1000 µM. `CCOc1cc(C(=O)O)cc(OCC)c1-n1cc(-c2cnn(C(F)F)c2)c2ncc(-c3c(C)noc3C)cc21` [P-0261, 4-(3-(1-(difluoromethyl)-1H-pyrazol-4-yl)-6-(3,5-dimethylisoxazol-4-yl)-1H-pyrrolo[3,2-b]pyridin-1-yl)-3,5-diethoxybenzoic acid] gave an IC50 of 1 to 8 µM. Work on `Cc1noc(C)c1-c1cnc2c(c1)c(-c1ccc(C(N)=O)cc1)cn2C(c1ccccn1)C1CCCC1` (stereo not drawn) [P-0020, 4-(1-(cyclopentyl(pyridin-2-yl)methyl)-5-(3,5-dimethylisoxazol-4-yl)-1H-pyrrolo[2,3-b]pyridin-3-yl)benzamide] yielded an IC50 of 1 to 8 µM. `Cc1noc(C)c1-c1cnc2c(c1)c(-c1ccc(C(=O)O)cc1OC(F)(F)F)cn2-c1ccccc1C1CC1` [P-0308, 4-(1-(2-cyclopropylphenyl)-5-(3,5-dimethylisoxazol-4-yl)-1H-pyrrolo[2,3-b]pyridin-3-yl)-3-(trifluoromethoxy)benzoic acid] gave an IC50 of 1 to 8 µM. For `Cc1noc(C)c1-c1cnc2c(c1)c(-c1cc(C(=O)O)ccc1OC(F)(F)F)cn2-c1ccc(F)cc1F` [P-0268, 3-(1-(2,4-difluorophenyl)-5-(3,5-dimethylisoxazol-4-yl)-1H-pyrrolo[2,3-b]pyridin-3-yl)-4-(trifluoromethoxy)benzoic acid], the IC50 was 1 to 8 µM.
